For test [1], the target named is KRAS G12D (Homo sapiens (Human), UniProt P01116, G12D). Briefly: KRAS G12D LoEnz Biochemical Assay, BODIPY-GDP Exchange TR-FRET (SOS1-mediated nucleotide exchange). Conditions: read-out: KRas (G12D) GDP HTRF IC50. (Time-resolved FRET reads energy transfer from a long-lived donor to a nearby acceptor.)
In test [2] the target is KRAS WT (Homo sapiens (Human), UniProt P01116). Briefly: KRAS WT Biochemical Assay, BODIPY-GDP Exchange TR-FRET (Example 502; 0.06 nM KRAS WT, 15 nM GDP, 300 nM SOS1, 120-minute incubation). Conditions: read-out: KRas HTRF IC50. How it is done:
Example 502: KRAS WT Biochemical Assay, BODIPY-GDP Exchange TR-FRET. Biochemical compound potencies are assessed by evaluating inhibition of SOS1-mediated nucleotide exchange in KRAS WT. In this assay, the SOS1-promoted exchange of fluorescently-labeled GDP (BOPIDY-GDP) is monitored by time-resolved fluorescence resonance energy transfer (TR-FRET). Compounds solubilized in DMSO are dispensed as concentration series into 384-well white assay plates. A preformed complex of 0.06 nM biotin-tagged recombinant human KRAS WT, 15 nM GDP and 0.06 nM terbium-labeled streptavidin (CisBIO) prepared in 10 uL/well assay buffer (20 mM HEPES, pH 7.5, 50 mM NaCl, 10 mM MgCl2, 0.01% Tween-20 and 1 mM dithiothreitol) is added and allowed to incubate for 10-minutes at room temperature. The reaction is initiated with the addition of 5 uL 300 nM recombinant human SOS1 and 300 nM BODIPY-GDP in assay buffer. After a 120-minute incubation, the fluorescence is measured with excitation at 337 nm and emission at 490 and 520 nm. The TR-FRET ratio is determined as the fluorescence at 520 nm divided by the fluorescence at 490 nm multiplied by 10,000. The results are normalized to percent inhibition based on control samples: DMSO (0% inhibition) and control compound at a concentration that inhibits completely (100% inhibition). The normalized TR-FRET results are plotted against compound concentration, and the data are fit to a 4-parameter Hill equation to determine the IC50 values.

Chain of KRAS WT (P01116-2 other isoform, or with tags, fused parts or gaps): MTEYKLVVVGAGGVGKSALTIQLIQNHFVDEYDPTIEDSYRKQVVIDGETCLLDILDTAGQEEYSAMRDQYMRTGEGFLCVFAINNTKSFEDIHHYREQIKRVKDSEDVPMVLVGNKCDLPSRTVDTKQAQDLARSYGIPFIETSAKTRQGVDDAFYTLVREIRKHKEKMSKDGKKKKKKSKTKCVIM
Chain of KRAS G12D (P01116-2 other isoform, or with tags, fused parts or gaps G12D): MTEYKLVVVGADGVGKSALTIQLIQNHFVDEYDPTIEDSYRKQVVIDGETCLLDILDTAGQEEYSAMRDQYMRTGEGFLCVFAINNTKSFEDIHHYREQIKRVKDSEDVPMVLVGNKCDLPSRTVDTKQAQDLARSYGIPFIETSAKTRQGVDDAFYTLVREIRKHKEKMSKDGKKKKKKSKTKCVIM

With `C#Cc1c(F)ccc2cc(N)cc(-c3nc4c5c(nc(OC[C@]67CCN6CC(F)(F)C7)nc5c3F)N3C[C@H]5CC[C@H](N5)[C@H]3[C@H](C)O4)c12` [Compound 110, 4-((5S,5aS,6S,9R)-12-(((R)-3,3-Difluoro-1-azabicyclo[3.2.0]heptan-5-yl)methoxy)-1-fluoro-5-methyl-5a,6,7,8,9,10-hexahydro-5H-4-oxa-3,10a,11,13,14-pentaaza-6,9-methanonaphtho[1,8-ab]heptalen-2-yl)-5-ethynyl-6-fluoronaphthalen-2-amine], the results for the IC50 in test [1] and in test [2] were 0.15 nM and 7.75 nM, respectively.
The matching figures for `Cc1c(F)c(N)cc(-c2nc3c4c(nc(OC[C@@]56CCCN5C[C@H](F)C6)nc4c2F)N2C[C@H]4CC[C@H](N4)[C@H]2[C@H](C)O3)c1Cl` [Compound 76, 4-Chloro-2-fluoro-5-((5S,5aS,6S,9R)-1-fluoro-12-(((2R,7aS)-2-fluorotetrahydro-1H-pyrrolizin-7a(5H)-yl)methoxy)-5-methyl-5a,6,7,8,9,10-hexahydro-5H-4-oxa-3,10a,11,13,14-pentaaza-6,9-methanonaphtho[1,8-ab]heptalen-2-yl)-3-methylaniline]: 0.13 nM and 14.3 nM.
Taken in the same sequence, the figures for `Cc1c(F)c(N)cc(-c2nc3c4c(nc(OCC56COC(CN5C)C6)nc4c2F)N2C[C@H]4CC[C@H](N4)[C@H]2[C@H](C)O3)c1C(F)(F)F` [Compound 132, 2-Fluoro-5-((5S,5aS,6S,9R)-1-fluoro-5-methyl-12-((5-methyl-2-oxa-5-azabicyclo[2.2.1]heptan-4-yl)methoxy)-5a,6,7,8,9,10-hexahydro-5H-4-oxa-3,10a,11,13,14-pentaaza-6,9-methanonaphtho[1,8-ab]heptalen-2-yl)-3-methyl-4-(trifluoromethyl)aniline] were 1.47 nM and 291 nM.
The matching figures for `Cc1c(F)c(N)cc(-c2nc3c4c(nc(OC[C@@H]5CC[C@H]6COCCN65)nc4c2F)N2C[C@H]4CC[C@H](N4)[C@H]2[C@H](C)O3)c1Cl` [Compound 111, 4-Chloro-2-fluoro-5-((5S,5aS,6S,9R)-1-fluoro-12-(((6S,8aS)-hexahydro-1H-pyrrolo[2,1-c][1,4]oxazin-6-yl)methoxy)-5-methyl-5a,6,7,8,9,10-hexahydro-5H-4-oxa-3,10a,11,13,14-pentaaza-6,9-methanonaphtho[1,8-ab]heptalen-2-yl)-3-methylaniline]: 0.31 nM and 108 nM.
Take `Cc1c(F)c(N)cc(-c2nc3c4c(nc(OC[C@@H]5CC[C@H]6COCCN65)nc4c2F)N2C[C@H]4CC[C@H](N4)[C@H]2[C@H](C)O3)c1CC(F)(F)F` [Compound 113, 2-fluoro-5-((5S,5aS,6S,9R)-1-fluoro-12-(((6S,8aS)-hexahydro-1H-pyrrolo[2,1-c][1,4]oxazin-6-yl)methoxy)-5-methyl-5a,6,7,8,9,10-hexahydro-5H-4-oxa-3,10a,11,13,14-pentaaza-6,9-methanonaphtho[1,8-ab]heptalen-2-yl)-3-methyl-4-(2,2,2-trifluoroethyl)aniline]: the results for the IC50 in test [1] and in test [2] were 0.31 nM and 65.6 nM, respectively.
`C[C@@H]1Oc2nc(-c3c(C#N)c(N)c(F)c(F)c3C(F)(F)F)c(F)c3nc(OC[C@@]45CCCN4C[C@H](F)C5)nc(c23)N2C[C@H]3CC[C@H](N3)[C@@H]12` [Compound 107, 2-Amino-3,4-difluoro-6-((5S,5aS,6S,9R)-1-fluoro-12-(((2R,7aS)-2-fluorotetrahydro-1H-pyrrolizin-7a(5H)-yl)methoxy)-5-methyl-5a,6,7,8,9,10-hexahydro-5H-4-oxa-3,10a,11,13,14-pentaaza-6,9-methanonaphtho[1,8-ab]heptalen-2-yl)-5-(trifluoromethyl)benzonitrile]: the IC50 – broadly, the concentration needed to halve the response being measured – in test [1] is 1.39 nM; in test [2], 167 nM.
Taken in the same sequence, the figures for `C[C@@H]1Oc2nc(-c3cc(N)cc4c3CCC4)c(F)c3nc(OC[C@@]45CCCN4C[C@H](F)C5)nc(c23)N2C[C@H]3CC[C@H](N3)[C@@H]12` [Compound 83, 7-((5S,5aS,6S,9R)-1-Fluoro-12-(((2R,7aS)-2-fluorotetrahydro-1H-pyrrolizin-7a(5H)-yl)methoxy)-5-methyl-5a,6,7,8,9,10-hexahydro-5H-4-oxa-3,10a,11,13,14-pentaaza-6,9-methanonaphtho[1,8-ab]heptalen-2-yl)-2,3-dihydro-1H-inden-5-amine] were 1.15 nM and 123 nM.
On to `Cc1c(F)c(N)cc(-c2nc3c4c(nc(OCC5(CN6CC(F)C6)CC5)nc4c2F)N2C[C@H]4CC[C@H](N4)[C@H]2[C@H](C)O3)c1C(F)(F)F` [Compound 173, 2-Fluoro-5-((5S,5aS,6S,9R)-1-fluoro-12-((1-((3-fluoroazetidin-1-yl)methyl)cyclopropyl)methoxy)-5-methyl-5a,6,7,8,9,10-hexahydro-5H-4-oxa-3,10a,11,13,14-pentaaza-6,9-methanonaphtho[1,8-ab]heptalene-2-yl)-3-methyl-4-(trifluoromethyl)aniline], for which the IC50 in test [1] was determined as 0.08 nM; in test [2], 5.95 nM.
For `Cc1c(F)c(N)cc(-c2nc3c4c(nc(OCCC5(N6CCOCC6)COC5)nc4c2F)N2C[C@H]4CC[C@H](N4)[C@H]2[C@H](C)O3)c1C(F)(F)F` [Compound 149, 2-Fluoro-5-((5S,5aS,6S,9R)-1-fluoro-5-methyl-12-(2-(3-morpholinooxetan-3-yl)ethoxy)-5a,6,7,8,9,10-hexahydro-5H-4-oxa-3,10a,11,13,14-pentaaza-6,9-methanonaphtho[1,8-ab]heptalen-2-yl)-3-methyl-4-(trifluoromethyl)aniline], the IC50 in test [1] was 18.4 nM; in test [2], 5450 nM.
Taken in the same sequence, the figures for `C[C@@H]1Oc2nc(-c3cc(N)ccc3C(C)(C)C)c(F)c3nc(OC[C@@]45CCCN4C[C@H](F)C5)nc(c23)N2C[C@H]3CC[C@H](N3)[C@@H]12` [Compound 117, 4-(tert-butyl)-3-((5S,5aS,6S,9R)-1-fluoro-12-(((2R,7aS)-2-fluorotetrahydro-1H-pyrrolizin-7a(5H)-yl)methoxy)-5-methyl-5a,6,7,8,9,10-hexahydro-5H-4-oxa-3,10a,11,13,14-pentaaza-6,9-methanonaphtho[1,8-ab]heptalen-2-yl)aniline] were 4.84 nM and 638 nM.
Taken in the same sequence, the figures for `Cc1c(F)c(N)cc(-c2nc3c4c(nc(OCC5(CN6CC7(COC7)C6)CC5)nc4c2F)N2C[C@H]4CC[C@H](N4)[C@H]2[C@H](C)O3)c1C(F)(F)F` [Compound 174, 5-((5S,5aS,6S,9R)-12-((1-((2-Oxa-azaspiro[3.3]heptan-6-yl)methyl)cyclopropyl)methoxy)-1-fluoro-5-methyl-5a,6,7,8,9,10-hexahydro-5H-4-oxa-3,10a,11,13,14-pentaaza[6,9]methanonaphtho[1,8-ab]heptalene-2-yl)-2-fluoro-3-methyl-4-(trifluoromethyl)aniline] were 3.39 nM and 3.04 nM.
The matching figures for `Cc1c(F)c(N)cc(-c2nc3c4c(nc(OC[C@@]56CCCN5CCN(C)C6=O)nc4c2F)N2C[C@H]4CC[C@H](N4)[C@H]2[C@H](C)O3)c1C(F)(F)F` (single isomer, unassigned) [137 (isomer 1)]: 2.31 nM and 283 nM.
As to `Cc1c(F)c(N)cc(-c2nc3c4c(nc(OC[C@@H]5CC[C@@H]6CC(F)(F)CCN65)nc4c2F)N2C[C@H]4CC[C@H](N4)[C@H]2[C@H](C)O3)c1C(F)(F)F` (single isomer, unassigned) [119 (isomer 1)], the IC50 in test [1] was 4.38 nM; in test [2], 787 nM.

For the origin of these results see patent US20240025919A1, “AZA-TETRACYCLIC OXAZEPINE COMPOUNDS AND USES THEREOF” (Genentech, Inc., priority 2022, published 2024).
